What was measured:
[1] = target: Activin receptor type-1 (Homo sapiens) (UniProt Q04771); conditions: Compound concentration 1000.0 nM
[2] = target: Aurora kinase B (Homo sapiens) (UniProt Q96GD4); conditions: Compound concentration 1000.0 nM
[3] = target: Bone morphogenetic protein receptor type-1A (Homo sapiens) (UniProt P36894); conditions: Compound concentration 1000.0 nM
[4] = target: Cyclin-dependent kinase 4 (Homo sapiens) (UniProt P11802); conditions: Compound concentration 1000.0 nM
[5] = target: Serine/threonine-protein kinase Chk1 (Homo sapiens) (UniProt O14757); conditions: Compound concentration 1000.0 nM
[6] = target: Casein kinase I isoform delta (Homo sapiens) (UniProt P48730); conditions: Compound concentration 1000.0 nM
[7] = target: Casein kinase I isoform epsilon (Homo sapiens) (UniProt P49674); conditions: Compound concentration 1000.0 nM
[8] = target: Megakaryocyte-associated tyrosine-protein kinase (Homo sapiens) (UniProt P42679); conditions: Compound concentration 1000.0 nM
[9] = target: Serine/threonine-protein kinase DCLK1 (Homo sapiens) (UniProt O15075); conditions: Compound concentration 1000.0 nM
[10] = target: Serine/threonine-protein kinase 17A (Homo sapiens) (UniProt Q9UEE5); conditions: Compound concentration 1000.0 nM
Sequence of Serine/threonine-protein kinase 17A (Homo sapiens) (Q9UEE5 whole entry): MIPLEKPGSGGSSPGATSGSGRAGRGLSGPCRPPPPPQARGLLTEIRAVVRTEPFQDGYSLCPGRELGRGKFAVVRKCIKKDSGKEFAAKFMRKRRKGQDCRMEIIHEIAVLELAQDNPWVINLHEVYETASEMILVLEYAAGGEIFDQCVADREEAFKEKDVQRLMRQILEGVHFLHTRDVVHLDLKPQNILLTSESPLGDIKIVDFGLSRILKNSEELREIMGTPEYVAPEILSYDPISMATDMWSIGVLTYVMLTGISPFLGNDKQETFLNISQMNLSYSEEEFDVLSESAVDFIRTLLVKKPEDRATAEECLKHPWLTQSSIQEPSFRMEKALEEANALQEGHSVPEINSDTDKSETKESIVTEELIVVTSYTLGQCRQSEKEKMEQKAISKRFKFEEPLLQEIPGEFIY

[11] = target: Epidermal growth factor receptor (Homo sapiens) (UniProt P00533); conditions: Compound concentration 1000.0 nM
[12] = test system: Epidermal growth factor receptor (Homo sapiens), P00533 [G719C]; conditions: Compound concentration 1000.0 nM
[13] = target: Ephrin type-A receptor 1 (Homo sapiens) (UniProt P21709); conditions: Compound concentration 1000.0 nM
[14] = target: Ephrin type-B receptor 1 (Homo sapiens) (UniProt P54762); conditions: Compound concentration 1000.0 nM
Sequence of Ephrin type-B receptor 1 (Homo sapiens) (P54762 whole entry): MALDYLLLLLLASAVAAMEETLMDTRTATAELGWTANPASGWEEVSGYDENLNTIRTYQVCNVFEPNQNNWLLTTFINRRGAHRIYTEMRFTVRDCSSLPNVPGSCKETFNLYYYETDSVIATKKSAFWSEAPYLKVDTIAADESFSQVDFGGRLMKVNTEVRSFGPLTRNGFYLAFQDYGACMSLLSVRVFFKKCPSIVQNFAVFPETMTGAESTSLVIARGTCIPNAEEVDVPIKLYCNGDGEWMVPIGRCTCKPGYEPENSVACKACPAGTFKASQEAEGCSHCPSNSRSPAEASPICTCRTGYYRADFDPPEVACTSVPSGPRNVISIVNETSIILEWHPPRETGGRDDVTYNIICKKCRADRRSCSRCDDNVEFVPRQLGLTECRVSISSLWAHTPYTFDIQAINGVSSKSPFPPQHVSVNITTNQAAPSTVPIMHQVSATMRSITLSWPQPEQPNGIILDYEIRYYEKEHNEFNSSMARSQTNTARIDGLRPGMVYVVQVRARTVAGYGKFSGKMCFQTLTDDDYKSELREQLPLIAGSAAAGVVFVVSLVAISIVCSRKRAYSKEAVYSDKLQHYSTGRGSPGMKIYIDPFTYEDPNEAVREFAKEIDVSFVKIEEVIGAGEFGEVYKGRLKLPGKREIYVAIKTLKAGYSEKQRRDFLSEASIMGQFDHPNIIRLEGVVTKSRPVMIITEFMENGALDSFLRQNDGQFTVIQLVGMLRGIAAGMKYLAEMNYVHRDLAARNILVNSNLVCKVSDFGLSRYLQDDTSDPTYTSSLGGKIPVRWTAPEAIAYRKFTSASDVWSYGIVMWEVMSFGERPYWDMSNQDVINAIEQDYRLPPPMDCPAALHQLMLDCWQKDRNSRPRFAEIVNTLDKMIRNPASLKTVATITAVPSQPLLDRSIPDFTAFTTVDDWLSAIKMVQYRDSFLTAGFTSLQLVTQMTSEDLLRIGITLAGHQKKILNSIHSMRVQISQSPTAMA

[15] = target: Tyrosine-protein kinase Fer (Homo sapiens) (UniProt P16591); conditions: Compound concentration 1000.0 nM
[16] = target: Tyrosine-protein kinase Fes/Fps (Homo sapiens) (UniProt P07332); conditions: Compound concentration 1000.0 nM
[17] = target: Fibroblast growth factor receptor 4 (Homo sapiens) (UniProt P22455); conditions: Compound concentration 1000.0 nM
[18] = target: Vascular endothelial growth factor receptor 1 (Homo sapiens) (UniProt P17948); conditions: Compound concentration 1000.0 nM
[19] = test system: Receptor-type tyrosine-protein kinase FLT3 (Homo sapiens), P36888 [UNDEFINED MUTATION]; conditions: Compound concentration 1000.0 nM
[20] = target: Tyrosine-protein kinase Fyn (Homo sapiens) (UniProt P06241); conditions: Compound concentration 1000.0 nM
[21] = target: Glycogen synthase kinase-3 beta (Homo sapiens) (UniProt P49841); conditions: Compound concentration 1000.0 nM
[22] = target: Homeodomain-interacting protein kinase 2 (Homo sapiens) (UniProt Q9H2X6); conditions: Compound concentration 1000.0 nM
[23] = target: Mitogen-activated protein kinase kinase kinase kinase 1 (Homo sapiens) (UniProt Q92918); conditions: Compound concentration 1000.0 nM
[24] = target: Tyrosine-protein kinase JAK2 (Homo sapiens) (UniProt O60674); conditions: Compound concentration 1000.0 nM
Sequence of Tyrosine-protein kinase JAK2 (Homo sapiens) (O60674 whole entry): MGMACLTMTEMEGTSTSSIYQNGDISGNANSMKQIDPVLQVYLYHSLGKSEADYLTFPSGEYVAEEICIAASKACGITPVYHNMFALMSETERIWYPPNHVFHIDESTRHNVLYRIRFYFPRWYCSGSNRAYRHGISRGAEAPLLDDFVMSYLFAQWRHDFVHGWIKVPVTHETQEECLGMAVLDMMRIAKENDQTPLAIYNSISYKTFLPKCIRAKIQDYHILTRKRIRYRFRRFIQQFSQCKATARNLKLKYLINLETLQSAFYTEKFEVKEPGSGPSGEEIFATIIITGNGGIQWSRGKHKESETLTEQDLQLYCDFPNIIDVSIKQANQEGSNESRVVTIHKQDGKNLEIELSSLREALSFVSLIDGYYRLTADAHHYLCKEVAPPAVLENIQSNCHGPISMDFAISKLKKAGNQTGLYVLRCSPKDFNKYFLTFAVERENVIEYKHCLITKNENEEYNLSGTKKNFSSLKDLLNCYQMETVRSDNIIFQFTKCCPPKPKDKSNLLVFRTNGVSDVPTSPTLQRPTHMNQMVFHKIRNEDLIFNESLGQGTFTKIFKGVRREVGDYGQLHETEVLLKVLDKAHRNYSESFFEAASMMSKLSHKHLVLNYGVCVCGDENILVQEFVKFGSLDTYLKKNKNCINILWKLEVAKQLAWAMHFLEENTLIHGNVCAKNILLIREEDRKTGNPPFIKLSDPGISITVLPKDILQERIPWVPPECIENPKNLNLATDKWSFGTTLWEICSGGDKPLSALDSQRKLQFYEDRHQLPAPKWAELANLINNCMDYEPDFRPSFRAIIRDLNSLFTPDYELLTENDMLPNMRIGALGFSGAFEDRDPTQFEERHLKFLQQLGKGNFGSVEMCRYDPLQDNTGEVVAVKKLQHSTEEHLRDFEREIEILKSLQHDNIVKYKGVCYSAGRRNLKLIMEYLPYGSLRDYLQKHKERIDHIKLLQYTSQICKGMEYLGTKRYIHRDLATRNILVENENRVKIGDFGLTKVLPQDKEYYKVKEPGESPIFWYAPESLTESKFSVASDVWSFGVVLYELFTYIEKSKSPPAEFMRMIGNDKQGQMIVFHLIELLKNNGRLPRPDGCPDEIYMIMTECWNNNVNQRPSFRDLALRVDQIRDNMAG

[25] = test system: Mast/stem cell growth factor receptor Kit (Homo sapiens), P10721 [D816H]; conditions: Compound concentration 1000.0 nM
[26] = target: Leukocyte tyrosine kinase receptor (Homo sapiens) (UniProt P29376); conditions: Compound concentration 1000.0 nM
[27] = target: Mitogen-activated protein kinase kinase kinase 13 (Homo sapiens) (UniProt O43283); conditions: Compound concentration 1000.0 nM
[28] = target: Mitogen-activated protein kinase kinase kinase 1 (Homo sapiens) (UniProt Q13233); conditions: Compound concentration 1000.0 nM
Sequence of Mitogen-activated protein kinase kinase kinase 1 (Homo sapiens) (Q13233 whole entry): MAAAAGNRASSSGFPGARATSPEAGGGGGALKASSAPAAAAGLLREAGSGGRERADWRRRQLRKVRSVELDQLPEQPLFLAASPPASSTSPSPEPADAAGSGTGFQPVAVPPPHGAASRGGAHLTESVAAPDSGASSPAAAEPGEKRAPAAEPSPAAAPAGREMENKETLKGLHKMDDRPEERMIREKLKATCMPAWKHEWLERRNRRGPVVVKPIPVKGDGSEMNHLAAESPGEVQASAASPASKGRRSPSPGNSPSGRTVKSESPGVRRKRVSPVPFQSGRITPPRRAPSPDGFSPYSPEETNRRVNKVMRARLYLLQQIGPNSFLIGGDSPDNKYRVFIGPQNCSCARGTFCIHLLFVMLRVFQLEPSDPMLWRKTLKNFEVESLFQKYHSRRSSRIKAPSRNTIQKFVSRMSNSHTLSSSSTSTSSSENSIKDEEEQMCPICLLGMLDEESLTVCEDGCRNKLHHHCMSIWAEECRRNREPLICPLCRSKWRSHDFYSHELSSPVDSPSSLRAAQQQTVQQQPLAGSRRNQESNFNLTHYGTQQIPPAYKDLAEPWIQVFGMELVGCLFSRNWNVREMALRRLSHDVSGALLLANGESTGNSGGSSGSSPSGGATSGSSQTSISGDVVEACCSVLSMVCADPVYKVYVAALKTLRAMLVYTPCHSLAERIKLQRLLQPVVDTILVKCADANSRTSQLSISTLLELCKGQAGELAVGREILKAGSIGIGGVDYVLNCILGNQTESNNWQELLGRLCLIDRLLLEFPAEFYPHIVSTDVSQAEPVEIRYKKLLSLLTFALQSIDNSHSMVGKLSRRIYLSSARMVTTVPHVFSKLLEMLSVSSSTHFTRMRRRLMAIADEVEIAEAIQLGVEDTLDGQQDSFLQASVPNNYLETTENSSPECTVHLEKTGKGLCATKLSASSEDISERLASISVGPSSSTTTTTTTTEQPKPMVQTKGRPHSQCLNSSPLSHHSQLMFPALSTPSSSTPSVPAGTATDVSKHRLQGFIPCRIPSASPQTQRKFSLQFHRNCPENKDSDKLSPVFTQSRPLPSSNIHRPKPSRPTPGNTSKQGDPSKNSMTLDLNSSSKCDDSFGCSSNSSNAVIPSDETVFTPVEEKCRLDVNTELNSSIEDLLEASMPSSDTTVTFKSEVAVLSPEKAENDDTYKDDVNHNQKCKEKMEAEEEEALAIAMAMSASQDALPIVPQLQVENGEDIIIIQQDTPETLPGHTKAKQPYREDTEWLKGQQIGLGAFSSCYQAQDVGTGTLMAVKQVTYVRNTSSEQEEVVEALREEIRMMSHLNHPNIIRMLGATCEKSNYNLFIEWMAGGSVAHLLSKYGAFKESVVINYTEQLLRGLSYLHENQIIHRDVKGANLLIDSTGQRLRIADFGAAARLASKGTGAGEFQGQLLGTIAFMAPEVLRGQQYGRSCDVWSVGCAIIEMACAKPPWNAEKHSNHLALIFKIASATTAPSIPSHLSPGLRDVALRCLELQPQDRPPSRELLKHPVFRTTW

[29] = target: Mitogen-activated protein kinase kinase kinase 2 (Homo sapiens) (UniProt Q9Y2U5); conditions: Compound concentration 1000.0 nM
[30] = target: MAP/microtubule affinity-regulating kinase 3 (Homo sapiens) (UniProt P27448); conditions: Compound concentration 1000.0 nM
[31] = target: Dual specificity mitogen-activated protein kinase kinase 7 (Homo sapiens) (UniProt O14733); conditions: Compound concentration 1000.0 nM
Sequence of Dual specificity mitogen-activated protein kinase kinase 7 (Homo sapiens) (O14733 whole entry): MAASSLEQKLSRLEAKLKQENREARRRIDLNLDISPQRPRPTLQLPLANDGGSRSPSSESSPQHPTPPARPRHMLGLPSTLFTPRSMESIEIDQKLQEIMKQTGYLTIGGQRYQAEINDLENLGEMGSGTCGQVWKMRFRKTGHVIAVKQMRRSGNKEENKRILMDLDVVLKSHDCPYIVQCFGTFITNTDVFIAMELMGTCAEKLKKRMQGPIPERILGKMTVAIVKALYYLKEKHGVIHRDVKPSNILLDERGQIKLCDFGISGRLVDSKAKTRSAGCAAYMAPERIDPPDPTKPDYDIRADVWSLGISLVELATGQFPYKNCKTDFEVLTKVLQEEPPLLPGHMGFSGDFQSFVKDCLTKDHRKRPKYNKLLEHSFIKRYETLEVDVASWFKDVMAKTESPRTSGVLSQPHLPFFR

[32] = target: Myosin-IIIb (Homo sapiens) (UniProt Q8WXR4); conditions: Compound concentration 1000.0 nM
[33] = target: Platelet-derived growth factor receptor alpha (Homo sapiens) (UniProt P16234); conditions: Compound concentration 1000.0 nM
[34] = test system: Phosphatidylinositol 4,5-bisphosphate 3-kinase catalytic subunit alpha isoform (Homo sapiens), P42336 [I800L]; conditions: Compound concentration 1000.0 nM
[35] = target: Phosphatidylinositol 4,5-bisphosphate 3-kinase catalytic subunit beta isoform (Homo sapiens) (UniProt P42338); conditions: Compound concentration 1000.0 nM
[36] = target: Serine/threonine-protein kinase pim-1 (Homo sapiens) (UniProt P11309); conditions: Compound concentration 1000.0 nM
Sequence of Serine/threonine-protein kinase pim-1 (Homo sapiens) (P11309 whole entry, looked up): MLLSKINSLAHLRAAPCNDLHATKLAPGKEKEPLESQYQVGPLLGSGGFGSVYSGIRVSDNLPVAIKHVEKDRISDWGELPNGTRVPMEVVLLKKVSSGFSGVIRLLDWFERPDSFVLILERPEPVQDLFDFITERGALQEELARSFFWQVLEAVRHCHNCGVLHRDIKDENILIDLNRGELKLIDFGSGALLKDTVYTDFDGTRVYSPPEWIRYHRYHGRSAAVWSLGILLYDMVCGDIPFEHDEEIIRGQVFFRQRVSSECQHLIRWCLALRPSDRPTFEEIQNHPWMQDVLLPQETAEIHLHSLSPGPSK

[37] = target: Serine/threonine-protein kinase pim-3 (Homo sapiens) (UniProt Q86V86); conditions: Compound concentration 1000.0 nM
[38] = target: Protein kinase C iota type (Homo sapiens) (UniProt P41743); conditions: Compound concentration 1000.0 nM
[39] = target: Dual serine/threonine and tyrosine protein kinase (Homo sapiens) (UniProt Q6XUX3); conditions: Compound concentration 1000.0 nM
[40] = target: Ribosomal protein S6 kinase alpha-5 (Homo sapiens) (UniProt O75582); conditions: Compound concentration 1000.0 nM
[41] = target: SRSF protein kinase 3 (Homo sapiens) (UniProt Q9UPE1); conditions: Compound concentration 1000.0 nM
[42] = target: Mitogen-activated protein kinase kinase kinase 19 (Homo sapiens) (UniProt Q56UN5); conditions: Compound concentration 1000.0 nM
[43] = target: 5-hydroxytryptamine receptor 3A (Homo sapiens) (UniProt P46098); conditions: Compound concentration 10.0 uM
[44] = target: D(4) dopamine receptor (Homo sapiens) (UniProt P21917); conditions: Compound concentration 10.0 uM
[45] = target: Beta-1 adrenergic receptor (Homo sapiens, UniProt P08588); conditions: Compound concentration 10.0 uM
[46] = target: Beta-2 adrenergic receptor (Homo sapiens) (UniProt P07550); conditions: Compound concentration 10.0 uM

Sequence of Cyclin-dependent kinase 4 (Homo sapiens) (P11802 whole entry): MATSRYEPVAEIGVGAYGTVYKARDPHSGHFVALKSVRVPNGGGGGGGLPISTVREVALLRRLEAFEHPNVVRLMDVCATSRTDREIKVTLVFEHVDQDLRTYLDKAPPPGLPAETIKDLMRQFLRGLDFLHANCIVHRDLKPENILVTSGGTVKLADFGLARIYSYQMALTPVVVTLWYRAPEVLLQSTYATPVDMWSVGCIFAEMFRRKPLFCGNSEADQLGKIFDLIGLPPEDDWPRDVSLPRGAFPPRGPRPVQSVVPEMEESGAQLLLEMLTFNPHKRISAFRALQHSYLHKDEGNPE

CC(=O)C1=C(C)N(c2cccc(C(F)(F)F)c2)C(=O)N[C@@H]1c1ccc(C#N)nc1 [BAY-678]
residual activity [1]: 74.5%
residual activity [2]: 100%
residual activity [3]: 100%
residual activity [4]: 79.4%
residual activity [5]: 73.2%
residual activity [6]: 100%
residual activity [7]: 100%
residual activity [8]: 100%
residual activity [9]: 85.1%
residual activity [10]: 93.7%
residual activity [11]: 78.2%
residual activity [12]: 100%
residual activity [13]: 100%
residual activity [14]: 100%
residual activity [15]: 96.9%
residual activity [16]: 84.1%
residual activity [17]: 100%
residual activity [18]: 62.4%
residual activity [19]: 100%
residual activity [20]: 100%
residual activity [21]: 100%
residual activity [22]: 94.3%
residual activity [23]: 100%
residual activity [24]: 87.1%
residual activity [25]: 100%
residual activity [26]: 92.6%
residual activity [27]: 92.4%
residual activity [28]: 100%
residual activity [29]: 100%
residual activity [30]: 100%
residual activity [31]: 100%
residual activity [32]: 78.3%
residual activity [33]: 100%
residual activity [34]: 75.4%
residual activity [35]: 100%
residual activity [36]: 100%
residual activity [37]: 100%
residual activity [38]: 100%
residual activity [39]: 76.9%
residual activity [40]: 83.4%
residual activity [41]: 100%
residual activity [42]: 93%
inhibition [43]: -7.63%
inhibition [44]: 15.9%
inhibition [45]: 60%
inhibition [46]: 24.3%
